The results in this text go back to a melting point compilation (Tetko et al.; mined from patent text by program, amines drawn as free bases though some values may be those of a salt).

The term melting point denotes the temperature of the solid-liquid transition. For `N#Cc1c(Br)c(Br)n(C(=O)Oc2ccccc2)c1Br`, the melting point lay within 128 to 129 °C.

Consider `Cc1ncc2cccc(O)c2n1`, for which the melting point fell in the range of 135 to 137 °C.

As for `CCCCOc1ccc(Cl)cc1C(=O)NCc1ccc(CC(=O)O)cc1`, the melting point is 172 °C. As for `CC(C)(C)c1cc(Br)c(O)c(C#N)c1`, the melting point fell in the range of 69 to 71 °C. `O=C1c2ccccc2C(=O)N1CCCN1CCC(c2noc3cc(F)ccc23)CC1` gave a melting point of 128 to 130 °C. As for `CNCC1CCN(c2c(F)cc3c(=O)c(C(=O)O)cn4c3c2OCC4C)C1` (stereo unspecified), the melting point was in the range of 235 to 238 °C. With `Cc1ccccc1-c1c(C(=O)O)c(=O)oc2cc3c(cc12)CCCC3` the figure was 216 to 217 °C.

`COCCCc1ccc2oc(-c3cc4cccn4cn3)cc(=NO)c2c1` had a melting point of 172 to 173 °C. With `CO[C@@H]1CN(Cc2ccccc2)C[C@H]1NC(=O)OC(C)(C)C` the figure was 44 to 45 °C; with `Cn1c2c(c3ccccc31)Cc1ccccc1-2`, 152 °C. With `Cc1ncsc1C(=O)Nc1ccc(-n2nc(C(F)(F)F)cc2C2CC2)c(F)c1` the figure was 95 to 97.6 °C. `CCCN1CCN(Cc2nc(-c3ccc4c(c3)Nc3ccccc3S4)cs2)CC1` yielded a melting point of 189 to 190 °C. In the case of `O=C(COc1ccc(-c2ccccc2)cc1)Nc1cscc1C(=O)O`, the melting point fell in the range of 247 to 251 °C.

`NCCOc1ccc2[nH]c3ccccc3c2c1`: the melting point was 145 to 146 °C. Take `CCOC(=O)c1ccc(Br)cc1COC(C)=O`: the melting point was 51.5 to 52.5 °C. With `COC1(c2csc(Sc3ccc4c(c3)OCC/C4=N\O)c2)CCOCC1` the figure was 137 to 138 °C. The result for `COc1ccc(C2(C#N)CCC(=O)CC2)cc1OC` reads 111 to 112 °C. With `O=C(O)c1ccc(C(c2ccccc2)c2ccccc2)cn1` the figure was 189 to 191 °C; with `Cc1oc(-c2ccc3ccccc3c2)nc1C=Cc1ccc(/C=C/C=O)cc1`, 213 to 214 °C; with `CCCN(CCCCNc1ncc(Cc2ccncc2)c(=O)[nH]1)c1ccccn1`, 58 to 60 °C. For the compound `CCc1nnc2ccc(-c3ccc(Cl)cc3)nn12`, the melting point lay in the range of 197 to 199 °C. For `CCOC(=O)CNCc1cc(I)ccc1N`, the melting point is 58 to 61 °C. For the compound `O=C(O)c1cc(/C=C/c2ccc(O)cc2)ccc1O`, the melting point is 241 to 243 °C.

`CC(C)(COC(=O)CCC(=O)O)Oc1ccc2c(c1)CCc1c-2ccc2c1CCC2(C)C` came in with a melting point of 118 to 120 °C. The result for `CC(C#N)NC(=O)NC(C)(C)C` (stereo unspecified) reads 161 to 163 °C. For `CC(C)(C)C(=O)COc1ccc(-c2ccc(Cl)cc2)cc1`, the melting point came to 90 °C. With `O=C(O)C(=O)CC(=O)c1cccn1Cc1ccccc1F` the figure was 155 to 156 °C. With `N#CC(=Cc1ccc2[nH]ccc2c1)C(=O)c1ccc(O)c(O)c1`, the melting point amounted to 185 °C. The result for `COC[C@@H](NC(=O)c1nn(-c2ccc(F)cc2F)c2c1C1CCC2C1)c1ccc(F)cc1` (stereo partly specified) reads 109 to 111 °C; that for `COc1c(C(=O)NCCN2CCN(c3cccc(Cl)c3Cl)CC2)cc(Br)c2ccccc12`, 137 °C; that for `COc1ccc2oc(C(=O)c3cccnc3N3CCOCC3)cc2c1`, 85 to 88 °C. The result for `O=C1Cc2ccccc2N1Nc1ccncc1` reads 221 to 224 °C; that for `COc1cccc2c(Nc3ccc(C(=O)NC4CCN(Cc5ccccc5)CC4)cc3)c(C(=O)NC3CCN(C)CC3)cnc12`, 230 to 232 °C; that for `COc1cc(CCC(=O)Nc2cccc(C(=O)O)c2)ccc1O`, 218 to 220 °C. With `CCOC(=O)c1cn(-c2nnc(C)s2)c2nc(N3CC[C@H](N)C3)c(F)cc2c1=O` the figure was 265 to 268 °C.

On to `Nc1cc(=O)n(Cc2ccc(OC(F)(F)F)cc2)[nH]1`, for which the melting point worked out at 99 °C.

Regarding `O=Cc1cccc2oc3c(c12)CCCC3`, the melting point was 55 to 57 °C. In the case of `CN1C(=O)C(C)(C)N=C(c2ccccc2F)c2cc(N)cc(Cl)c21`, the melting point lay in the range of 169 to 172 °C.

The compound `COc1ccc(OC)c(S(=O)(=O)N2CCC(N3N=C(c4ccc(OC)c(OC)c4)CCC3=O)CC2)c1` displayed a melting point of 184 to 185 °C. Regarding `COc1ccc(C(=O)CBr)c2c1OCCO2`, the melting point is 67 °C. The result for `COc1cc(C)c(C(=O)c2c(Cl)cccc2Cl)cc1[N+](=O)[O-]` reads 156 to 160 °C; that for `O=C1NC(=O)C(Cc2ccc(OCCON=Cc3cccc(-c4ccccc4)c3)cc2)S1` (stereo unspecified), 128 °C.

The compound `CC(C)(C)OC(=O)CN1CCC(C)(N)C1=O` (stereo unspecified) showed a melting point of 72 to 77 °C. With `CN1CCC(Oc2ccccc2N)(c2ccccc2)CC1` the figure was 129 to 130 °C. With `COc1ccc(CC2(C)CN(C(c3ccccc3)c3ccccc3)CCN2)cc1OC` (stereo unspecified) the figure was 123 °C. Take `CNc1cc(C(C)=O)ccc1OCCCCl`: the melting point was in the range of 115 to 117 °C. With `Cc1c(-c2cccc(O)c2)n(Cc2ccc(OCCN3CCCCC3)cc2)c2ccc(O)cc12` the figure was 115 to 118 °C; with `N#Cc1c[nH]nc1-c1ccc([N+](=O)[O-])o1`, 238 to 239 °C; with `CCOC(=O)CC(=O)N(C)c1ccc(Cl)cc1N`, 112 to 114 °C.

`O=C(OCc1ccccc1)C(CC(=O)N1Cc2cscc2C1)Cc1ccccc1` (stereo unspecified) gave a melting point of 122 to 124 °C. With `COc1cc(OC(C)(C)C(=O)O)c(-c2cccs2)cc1C=O` the figure was 183 to 184 °C.

`O=C(O)C1Cc2ccccc2N1C(=O)CCSSCCC(=O)N1c2ccccc2CC1C(=O)O` (stereo unspecified) returned a melting point of 213 to 216 °C. Compound `CC(C)CCN1C(=O)C(NC(=O)Nc2ccccc2)C(=O)N(CCN(C)C)c2ccccc21` (stereo unspecified) displayed a melting point of 159 to 161 °C.

In turn, `CCOC(=O)c1cn(C2CC2)c2c(F)c(NCC(O)CO)c(F)cc2c1=O` (stereo unspecified) displayed a melting point of 173 to 175 °C. With `COc1cccc(OCc2ccc(C(=O)N(C)C3CCCCC3)cc2)c1` the figure was 90.4 °C; with `Cc1cc(-c2ccccc2)n2nc(C)c(C#N)c2n1`, 175 to 177 °C.

The compound `ICCCCCCc1ccc(-c2ccccc2)cc1` returned a melting point of 77 to 77.5 °C. The result for `O=C(O)COc1ccc(-c2ccc(=O)[nH]n2)cc1Cl` reads 227 °C; that for `CNc1cccc(S(=O)(=O)NC(=O)Nc2nc(OC)cc(OC)n2)n1`, 166 to 168 °C. The result for `Cc1ccc(S(=O)(=O)OC2CCC3(CC2)OCCO3)cc1` reads 65 to 67.5 °C. The result for `CCn1cc(CN(C(=O)C2CCCc3c(O)cccc32)c2ccc(C(C)C)nc2)cn1` (stereo unspecified) reads 173 °C; that for `c1ccc(CO[C@@H]2CCC[C@H]2Nc2nc(N3CCN(c4ccccc4)CC3)nc3c2SCC3)cc1`, 100 to 105 °C; that for `O=C(CCCCOc1ccccc1)C(F)(F)F`, 50 to 51 °C.

`CCCc1nc2c(N)nc(C)c(C)c2n1CCOCc1ccccc1` registered a melting point of 99.5 to 100 °C. With `CC1CCc2cc(C3=NNC(=O)C4CC34)ccc2NC1=O` (stereo unspecified) the figure was 305 to 307 °C; with `COC(=O)c1cc(C(=O)OC)c(Br)cn1`, 102 to 104 °C.
